Among the data in ChEMBL document CHEMBL3091419, “Cytidine derivatives as IspF inhibitors of Burkolderia pseudomallei” (Bioorg Med Chem Lett, 2013) are Kd and Activity values, retold here.

Activity calls are given as the source filed them. The rule behind the calls is not given here. A value given as a limit tells only on which side of the number the result lay.

Assay [1] deals with T1, 2-C-methyl-D-erythritol 2,4-cyclodiphosphate synthase (Burkholderia pseudomallei (strain K96243), UniProt Q63T71).
T1 sequence (Q63T71 whole entry): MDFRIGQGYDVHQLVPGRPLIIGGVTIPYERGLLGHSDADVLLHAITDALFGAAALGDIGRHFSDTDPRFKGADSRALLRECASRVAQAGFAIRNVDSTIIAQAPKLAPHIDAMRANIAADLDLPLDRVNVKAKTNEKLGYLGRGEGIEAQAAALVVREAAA
Briefly: Binding affinity to Burkolderia pseudomallei IspF by surface plasmon resonance method. On the technique in general: Surface plasmon resonance follows binding to a sensor surface in real time, without labels.

Assay [2] relates to Plasmodium falciparum. In words: Antimicrobial activity against Plasmodium falciparum D6 at 40 uM. The format is functional, organism-based.
The subject of assay [3] is Plasmodium falciparum. Briefly: Antimicrobial activity against Plasmodium falciparum C235 at 40 uM. The assay is classed as functional, organism-based.
Assay [4] concerns Plasmodium falciparum. Briefly: Antimicrobial activity against Plasmodium falciparum W2 at 40 uM. The assay is classed as functional, organism-based.
The subject of assay [5] is Burkholderia thailandensis. In words: Antimicrobial activity against Burkholderia thailandensis at 1 mM. The format is functional.

For the compound `Nc1ccn([C@@H]2O[C@H](CNC(=O)c3ccnc4nc[nH]c34)[C@@H](O)[C@H]2O)c(=O)n1`, in assay [1], binding was put at a Kd of 90 µM. The result (in the assay on Plasmodium falciparum [2]; with Plasmodium falciparum [3]; in the assay on Plasmodium falciparum [4]; in assay [5]) was inactive.
On to `OCc1cn2ccsc2n1`, for which the affinity in assay [1], expressed as Kd, was 135 µM.
Regarding `Nc1ccn([C@@H]2O[C@H](CNC(=O)Cc3cn4ccsc4n3)[C@@H](O)[C@H]2O)c(=O)n1`, in assay [1], the equilibrium dissociation constant (Kd) – broadly, a measure of binding affinity in units of concentration – amounted to 148 µM. The result (in the assay with Plasmodium falciparum [2]; in the assay on Plasmodium falciparum [3]; in the assay with Plasmodium falciparum [4]; in assay [5]) was inactive.
With `Nc1ccn([C@@H]2O[C@H](CNC(=O)c3cn4ccsc4n3)[C@@H](O)[C@H]2O)c(=O)n1`, in assay [1], the Kd came to 70 µM. Further, the outcome (in the assay with Plasmodium falciparum [2]; with Plasmodium falciparum [3]; with Plasmodium falciparum [4]; in assay [5]) was inactive.
`Nc1ccn([C@@H]2O[C@H](CNC(=O)c3ccncc3)[C@@H](O)[C@H]2O)c(=O)n1`: in assay [1], the affinity, expressed as Kd, was 180 µM. The result (in the assay with Plasmodium falciparum [2]; in the assay on Plasmodium falciparum [3]; in the assay with Plasmodium falciparum [4]; in assay [5]) was inactive.
In turn, `Oc1ccc(-n2ccnc2)cc1` had an equilibrium dissociation constant (Kd) in assay [1] of more than 500 µM.
`Nc1ccn([C@@H]2O[C@H](CNC(=O)c3cscn3)[C@@H](O)[C@H]2O)c(=O)n1` returned a dissociation constant Kd in assay [1] of 200 µM. The outcome (with Plasmodium falciparum [2]; in the assay on Plasmodium falciparum [3]; in the assay with Plasmodium falciparum [4]; in assay [5]) was inactive.
